# Measured values from PubChem BioAssay AID602131 (Sanford-Burnham Center for Chemical Genomics, 2011).
# Calls of active or inactive are those of the source.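 The calls were made as follows: active = IC50 at or below 20 µM; inactive = the rest.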
# Molecular target: glucose-6-phosphate dehydrogenase-6-phosphogluconolactonase (PfGluPho), Plasmodium falciparum 3D7
# Assay: inhibition of P. falciparum G6PD-lactonase – biochemical, fluorescence intensity, dose response, set 3, SAR follow-up (AID 602131)
# Settings: recombinant PfGluPho, NADPH resazurin-diaphorase fluorescence
row,Structure (SMILES),IC50
1,CCC(C)N1CCCC1CNC(=O)c1ccc2c(c1)NC(=O)c1ccccc1S2 (centres undefined),9.23 µM
2,CCN1CCC[C@@H]1CNC(=O)c1ccc2c(c1)NC(=O)/C(=C/c1ccccc1F)S2,0.889 µM
3,CCN(CC)CCNC(=O)c1ccc2c(c1)NC(=O)/C(=C/c1ccccc1F)S2,6.86 µM
4,O=C(NCCN1CCCCC1)c1ccc2c(c1)NC(=O)c1ccccc1S2,inactive
5,CN(C)c1ccccc1CNC(=O)c1ccc2c(c1)NC(=O)/C(=C/c1ccccc1F)S2,> 80 µM (inactive)
6,CCN1CCCC1CNC(=O)c1ccc2c(c1)NC(=O)C(Cc1ccccc1F)S2 (centres undefined),> 80 µM (inactive)
7,CCN1CCC[C@H]1CNC(=O)c1ccc2c(c1)NC(=O)c1ccccc1S2,inactive
8,NC1CCN(C(=O)c2ccc3c(c2)NC(=O)c2ccccc2S3)C1 (centres undefined),> 80 µM (inactive)
9,CCN1CCC[C@@H]1CNC(=O)c1ccc2c(c1)NC(=O)c1ccccc1S2,5.05 µM
10,CCC(C)N(CCNC(=O)c1ccc2c(c1)NC(=O)c1ccccc1S2)C1CCCCC1 (centres undefined),14.1 µM
11,O=C(NCCN1CCOCC1)c1ccc2c(c1)NC(=O)c1ccccc1S2,> 80 µM (inactive)
12,CC(C)(C)OC(=O)N1CCCC1CNC(=O)c1ccc2c(c1)NC(=O)/C(=C/c1ccccc1F)S2 (centres undefined),> 80 µM (inactive)
13,O=C(NCCNC1CCCCC1)c1ccc2c(c1)NC(=O)c1ccccc1S2,inactive
14,NCCNC(=O)c1ccc2c(c1)NC(=O)c1ccccc1S2,> 80 µM (inactive)
15,CCN1CCCC1CNC(=O)c1ccc2c(c1)NC(=O)/C(=C/c1ccc(F)cc1)S2 (centres undefined),1.41 µM
16,CCN1CCC[C@H]1CNC(=O)c1ccc2c(c1)NC(=O)/C(=C/c1ccccc1F)S2,6.59 µM
17,CCN1CCCC1CNC(=O)c1ccc2c(c1)NC(=O)/C(=C/c1ccc3ccccc3c1)S2 (centres undefined),2.39 µM
18,CCN(CC)CCCC(C)Nc1ccnc2cc(Cl)ccc12 (centres undefined),> 80 µM (inactive)
19,NC1CCN(C(=O)c2ccc3c(c2)NC(=O)/C(=C/c2ccccc2F)S3)C1 (centres undefined),inactive
